Experimental data from US20250302817A1, “METHODS FOR TREATING PTEN-MUTANT TUMORS” (Icahn School of Medicine at Mount Sinai, priority 2016, published 2025).

Key:
gamma-H2AX = assay: Gamma-H2AX measurement of DNA damage by flow cytometry; format: cell-based; details: 100 μM leflunomide 48 h or A771726
Description: (§1) FIG. 4A is a graph showing positively-stained cells labeled with a gamma-H2AX antibody; cells were analyzed by flow cytometry (Student's t-test, *p<0.05, n=3). […] The mean fluorescence intensity (MFI) was determined using flow cytometry (Student's t-test, *p<0.01, n=3). FIG. 4C is a series of representative photographs showing MEFs treated with 150 μM A771726 for 24 h and labeled with EdU and gamma-H2AX. Left: representative confocal microscopy images. Right: quantified EdU and gamma-H2AX colocalized foci (Student's t-test, *p<0.05, n=3). […] Left: representative confocal microscopy images. Right: quantification of the number of foci per cell (Student's t-test, p>0.05, n=6). FIG. 4E is a graph showing the percentage of cells treated with 150 μM A771726 for times indicated and labeled with antibodies to RPA and gamma-H2AX positively staining for RPA alone or both RPA and gamma-H2AX; cells were analyzed by flow cytometry (Student's t-test, *p<0.05, n=4). […] FIGS. 4G and 4H are graphs quantifying the number of chromosomal breaks and multiradial formations per haploid genome (Student's t-test, *p-values on figure, cells scored/replicate>100). […]
(§2) FIG. 10D is a bar graph showing a quantitative depiction of the percent cell area with EdU-staining from images in FIG. 4D, used to normalize foci to cell size (Student's t-test, p>0.05, not significant, n=6). […]

[1] = test system: SUM149 and MDA-MB 468 xenografts; assay: PTEN-mutant triple-negative breast cancer xenografts; format: in vivo, nu/nu mice
Description: FIG. 3B is a graph showing the tumor volume of PTEN-mutant triple-negative breast cancer cell line SUM149 xenografts. […] FIG. 3C is a graph showing the relative luminescence of PTEN-mutant triple-negative breast cancer cell line MDA-MB 468 xenografts expressing luciferase. […] Radiance was measured on days 0, 7, 14, and 21, quantified as photons/second/cm^2/steradian. FIG. 3D: luminescence of treated and control mice after 2 weeks of treatment. Data shown as mean+SD for FIG. 3A and +SEM for FIGS. 3B and 3C.
FIG. 9A is an immunoblot of PTEN in the four patient-derived glioblastomas in FIG. 3A. […] Tumor size was measured by assessing luminescence, quantified by photons/second/cm^2/steradian (n=2). […] Tumor volume was measured by calipers. Growth rate of the tumors was determined by calculating the slope of the tumor growth (Student's t-test, *p<0.01, n=8). Data shown as means±SEM.
6-week old nu/nu mice (Jackson Laboratory, 20-25 g weight each) were engrafted orthotopically with either 5 million SUM149, 5 million MDAMB 468-luciferase, 1 million MCCL-357, or 0.75 million MCCL-278 cells. […] Luminescence was measured on days 0, 7, 14, and 21, quantified as photons/second/cm^2/steradian, and normalized to baseline.

[2] = test system: Pten^−/− MEFs, PTEN-mutant human breast cancer cell lines, and Pten^−/− mouse breast lines; assay: Cell death accumulation by live-cell imaging with DRAQ7; format: cell-based; details: 100 uM leflunomide and DRAQ7, 6 h intervals; PTEN-deficient versus WT cells
Text: (§3) FIG. 2F is a graph comparing various human breast cancer cell line growth rates. FIG. 2G is a series of immunoblots of pAKT in nuclear fractions of Pten^−/− and Pik3ca mutant MEFs. […] Data shown as mean+SD.
(§4) FIG. 7C, FIG. 7D, and FIG. 7E are series of bar graphs depicting the GI50s of cells treated with dose titrations of DHODH inhibitors as indicated (Student's t-test, *p-values as reported on the figures, n=3). […] FIG. 7G depicts the confluence of MCCL-278 and MCCL-357 breast cells. FIG. 7H depicts the confluence of Myc-CaP and CaP8 prostate cells. FIG. 7I is an immunoblot of pAKT in MCCL-278 and MCCL-357 breast cells. FIG. 7J is an immunoblot of pAKT in nuclear fractions of MCCL-278 and MCCL-357 breast cells. Data shown as means±SD.
(§5) Cells were plated in 96-well plates at a density of 1500 or 3000 cells per well. […] Sensitivity was determined by a dose-response titration for each cell line, with an equivalent amount of DMSO in each well. For cell death assays, DRAQ7™ (Cell Signaling 7406S) was added to the media at a 1:200 dilution and red fluorescence was measured in addition to phase in live-cell imaging to measure accumulation of dead cells. An IncuCyte ZOOM was used.

[3] = test system: MCCL-357 (Myc, Pten^−/−), CaP8 (PTEN^−/−), MCCL-278 (Myc, Pik3ca H1047R) and Myc-CaP (Myc); assay: Drug response assay (GI50) in mouse cancer lines; format: cell-based; details: Myc-CaP prostate cells (FIG. 7D)
Text: as §3, §4, §5

Pten^−/− MEFs = assay: EdU detection of replication forks in MEFs; format: cell-based, mouse; details: after 24 h of treatment with leflunomide
Description: as §1, §2

[4] = in vivo; cited from earlier work
[5] = test system: human breast, mouse breast, or mouse prostate tumor cell lines; assay: Proliferation rates of tumor cell lines versus leflunomide sensitivity; format: cell-based
Text: as §3, §4
(§6) 1500 cells per well (mouse cells) or 3000 cells per well (human cells) were plated in 96-well plates (Corning 720089). Growth rates were determined using the phase-confluency readings on an IncuCyte ZOOM (Essen Biosciences) on live cells over time.

Pten^−/− and WT MEFs [6] = assay: Drug response assay (GI50 dose titration) in Pten WT and KO MEFs; format: cell-based, mouse; details: for differential sensitivity of Pten^−/− versus WT MEFs: GI50 dose titration (FIG. 8, E-F)
Description: as §3, §6, §5

Pten^−/− and WT MEFs [7] = assay: Growth of Pten WT and KO MEFs with glutaminase inhibitor (proliferation assay); format: cell-based, mouse; details: 12.5 nM CB-839 (FIG. 1F)
Description: FIG. 1A is a graph comparing the growth of Pten wild-type (WT) and KO MEFs (one-way ANOVA, *p<0.0001, n=3). FIG. 1B is a series of representative confocal microscopy photographs showing MEFs labeled with EdU. FIG. 1C is a graph showing a quantitative depiction of the photographs in FIG. 1B (Student's t-test, *p<0.05, n=6). FIG. 1D is a graph showing a quantitative depiction of the mean fluorescence intensity of MEFs labeled with EdU; cells were analyzed by flow cytometry (Student's t-test, *p<0.01, n=3). FIG. 1E is a series of representative photographs showing Pten WT and KO MEFs in media containing full glutamine ([…]) or no added glutamine (one-way ANOVA, *p<0.0001, n=3). […] FIG. 1G is a graph comparing the relative metabolite concentrations of DNA nucleotide precursors in Pten WT and KO MEFs (dGMP was unable to be measured so dGTP was used instead) (Student's t-test, *p<0.05, n=3). […] Data were also analyzed with IMPaLA: ^13C glutamine-derived pyrimidine metabolism enrichment in PTEN^−/− MEFs q-value=3.92×10^−09. […]
1500 cells per well (mouse cells) or 3000 cells per well (human cells) were plated in 96-well plates (Corning 720089). Growth rates were determined using the phase-confluency readings on an IncuCyte ZOOM (Essen Biosciences) on live cells over time. […]

PTEN-deficient cells = assay: Orotate rescue of growth inhibition by leflunomide; format: cell-based; details: increasing concentrations of orotate with 25 or 50 μM leflunomide; confluence after 5 days
Text: as §3
Note that here as well as in FIG. 2, H-I, a large amount of DMSO was used in each condition to match the amount of orotate needed, narrowing the growth differential normally observed between leflunomide-treated and untreated cells in the PTEN mutant setting. FIG. 8B is a bar graph and immunoblot depicting cells transfected with siRNA against DHODH. The bar graph depicts cell viability measured using annexin V and 7AAD. 0.5 μg/mL actinomycin D was a positive control for cell death. (Students t-test, *p<0.05, n=3). […] FIG. 8C is an immunoblot of DHODH in Pten KO and WT cells. FIG. 8D is an immunoblot of pAKT in Pten KO and WT cells with or without treatment with 50 μM A771726. FIG. 8E and FIG. 8F are bar graphs depicting the GI50s of cells treated with dose titrations of 5-fluorouracil or mercaptopurine, respectively (Student's t-test, p>0.05, n=3). FIG. 8G depicts the confluence of prostate cells grown in media containing full glutamine (4 mM) or no added glutamine. Data shown as means±SD.
Orotate (Sigma O2750) was dissolved in DMSO.

Which “DNA damage (gamma-H2AX) in PTEN-deficient versus WT cells” value (gamma-H2AX) does the source give for Cc1oncc1C(=O)Nc1ccc(C(F)(F)F)cc1 [leflunomide] here?
Its value is “augmented DNA damage to a significantly greater degree in PTEN-deficient cells”.

What about the “tumor growth upon treatment” value ([1]; 100 mg/kg oral leflunomide, two PTEN-mutant triple-negative breast cancer xenografts) of the same compound?
Its value is “slowed or regressed”.

What about the “response of very large tumors (4×10^7 photons)” value ([1]; MDA-MB 468 xenografts grown seven weeks untreated, then 100 mg/kg leflunomide for 1 week) of the same compound?
Its value is “regressed after only 1 week of treatment”.

What about the “accumulation of dead cells over time” value [2] of the same compound?
Its value is “increased accumulation of dead cells over time”.

And the “sensitivity of Myc-CaP cells” value [3]?
Its value is “resistant”.

And the “number of replication forks in Pten^−/− MEFs after treatment” value (Pten^−/− MEFs)?
Its value is “remained intact”.

What about the half-life [4] of the same compound?
The half-life was ~2 weeks.

And the “association of sensitivity with proliferation rates of tumor cell lines” value [5]?
Its value is “not associated with the proliferation rates”.

With Cc1c(-c2ccc(-c3ccccc3F)cc2)nc2ccc(F)cc2c1C(=O)O [brequinar] as the compound, how does the “sensitivity of Pten^−/− MEFs compared with WT MEFs” value (Pten^−/− and WT MEFs [6]; GI50 dose titration (FIG. 2A)) read?
Its value is “more sensitive”.

Which “differential sensitivity of Pten^−/− versus WT MEFs” value (Pten^−/− and WT MEFs [6]) does the source give for O=c1[nH]cc(F)c(=O)[nH]1 [5-flurouracil, 5-fluorouracil] here?
Its value is “did not show a differential sensitivity”.

With O=C(Cc1cccc(OC(F)(F)F)c1)Nc1ccc(CCCCc2nnc(NC(=O)Cc3ccccn3)s2)nn1 [CB-839] as the compound, how does the “growth difference between Pten^−/− and WT MEFs” value (Pten^−/− and WT MEFs [7]) read?
The value was “sufficient to collapse the growth difference”.

For S=c1nc[nH]c2nc[nH]c12 [mercaptopurine], which “differential sensitivity of Pten^−/− versus WT MEFs” value (Pten^−/− and WT MEFs [6]) is on record?
Its value is “did not show a differential sensitivity”.

For O=C(O)c1cc(=O)[nH]c(=O)[nH]1 [orotate], which “rescue of growth inhibition by leflunomide” value (PTEN-deficient cells) is on record?
The value was “rescued growth inhibition by leflunomide in a dose-dependent manner”.
